Measurements taken from patent US6967196B1, “Sulfonamide compounds and uses thereof” (Bristol-Myers Squibb Company, priority 1999, dated 2005).
Structures can show the parent of a compound that is named as a salt. Where two headings read alike, the source gives them in different places. Each block holds one compound with its values, some of them ahead of it.

System: amyloid β production in transfected H4 (human neuroglioma) cells stably expressing APP constructs
Test: In vitro cell-based assay of inhibitors of amyloid β production (ELISA)
Conditions: amyloid β in medium by ELISA, read-out: ACTIVITY (IC50, inhibition of amyloid β production)
How it was run: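 H4 neuroglioma cells stably expressing APP constructs were dosed in fresh medium, screened initially at 10-100 μM, and incubated ~16 h. Medium Aβ was measured by ELISA with C-terminal-epitope capture and N-terminal detection antibodies, quantified from a standard curve, with dose-response testing of actives.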

[1] = transfected H4 cells stably expressing APP, approx. 16 h incubation
[2] = Homo sapiens, 16 h, transfected H4 cells expressing APP, approximately 16 hours incubation
[3] = Homo sapiens, 16 h, transfected H4 cells stably expressing APP constructs, approximately 16 hours incubation
[4] = transfected H4 cells stably expressing APP constructs, approximately 16 hours incubation
[5] = transfected H4 cells stably expressing APP, approximately 16 hours incubation
[6] = Homo sapiens, 16 h, transfected H4 cells stably expressing APP, approximately 16 hours incubation

Compound: N-{3-[2-({[(4-chlorophenyl)sulfonyl]-2,5-difluoroanilino}methyl)phenoxy]propyl}-2-iodo-N-methylbenzamide [Example 716]
IC50 [1]: 100 to 500 nM

Compound: CCCCC(=O)N(C)CCCOc1ccccc1CN(c1cc(F)ccc1F)S(=O)(=O)c1ccc(Cl)cc1 [Example 717, N-{3-[2-({[(4-chlorophenyl)sulfonyl]-2,5-difluoroanilino}methyl)phenoxy]propyl}-N-methylpentamide]
IC50 [1]: 100 to 500 nM

Compound: (R)-4-Chloro-N-(2,5-difluorophenyl)-N-[1-[4-fluoro-2-[1-(2-methyl-4-thiomorpholinyl)butanoyl]phenyl]ethyl]benzenesulfonamide [Example 1276]
IC50 [4]: ≤ 25 nM

Compound: (2R)-2-{[(4-chlorophenyl)sulfonyl]-2,5-difluoroanilino}propyl isonicotinate [Example 1057]
IC50 [5]: > 500 nM

Compound: 2-((1R)-1-{[(4-chlorophenyl)sulfonyl]-2,5-difluoroanilino}ethyl)benzyl butyl(methyl)carbamate [Example 720]
IC50 [1]: 100 to 500 nM

Compound: O=S(=O)(c1ccc(Cl)cc1)N(Cc1ccccc1OCCCN1CCCCC1)c1cc(Cl)cc(Cl)c1 [Example 816, 4-chloro-N-(3,5-dichlorophenyl)-N-{2-[3-(1-piperidinyl)propoxy]benzyl}benzenesulfonamide hydrochloride]
IC50 [6]: 100 to 500 nM

Compound: CCOc1ccc(C(=O)N(C)CCCOc2ccccc2C(C)N(c2cc(F)ccc2F)S(=O)(=O)c2ccc(Cl)cc2)cc1 (centres unmarked) [Example 768]
IC50 [1]: 100 to 500 nM

Compound: O=S(=O)(CCCOc1ccccc1CN(c1cc(F)ccc1F)S(=O)(=O)c1ccc(Cl)cc1)c1ccccc1 [Example 818, 4-chloro-N-(2,5-difluorophenyl)-N-{2-[3-(phenylsulfonyl)propoxy]benzyl}benzenesulfonamide]
IC50 [6]: 100 to 500 nM

Compound: C[C@H](c1ccccc1OCCCN(C)C(=O)c1cccnc1)N(c1cc(F)ccc1F)S(=O)(=O)c1ccc(Cl)cc1 [Example 363, N-{3-[2-((1R)-1-{[(4-chlorophenyl)sulfonyl]-2,5-difluoroanilino}ethyl)phenoxy]propyl}-N-methylnicotinamide Hydrochloride]
IC50 (transfected H4 cells stably expressing APP, approximately 16 hours incubation, Table B): 50 to 100 nM

Compound: [({4-[2-((1R)-1-{[(4-chlorophenyl)sulfonyl]-2,5-difluoroanilino}ethyl)-5-fluorophenyl]butanoyl}amino)oxy]acetic acid [Example 1077]
IC50 [5]: > 500 nM

The remaining lines, values ahead:

IC50 [2]: > 500 nM
Compound: COc1ccc(CCNC(=O)[C@@H](C)N(c2cc(Cl)ccc2F)S(=O)(=O)c2ccc(Cl)cc2)cc1 [Example 1353]

IC50 [3]: 100 to 500 nM
Compound: CC(CCCN=[N+]=[N-])N(c1cc(Cl)ccc1Cl)S(=O)(=O)c1ccc(Cl)cc1 (centres unmarked) [Example 1138, 4-chloro-N-(2,5-dichlorophenyl)-N-[4-(azido)-1-methylbutyl]benzenesulfonamide]

IC50 [3]: > 10000 nM
Compound: CN(C)CCCOc1ccccc1CN(c1ccccc1)S(=O)(=O)c1ccccc1[N+](=O)[O-] [Example 1084, N-{2-[3-(dimethylamino)propoxy]benzyl}-2-nitro-N-phenylbenzenesulfonamide]

IC50 [2]: > 500 nM
Compound: C[C@H](C(=O)NCc1cccc(I)c1)N(c1cc(Cl)ccc1F)S(=O)(=O)c1ccc(Cl)cc1 [Example 1330]

IC50 [3]: 50 to 100 nM
Compound: C[C@H](CCCN1CCCCC1CS(C)(=O)=O)N(c1cc(Cl)ccc1Cl)S(=O)(=O)c1ccc(Cl)cc1 (stereo partly drawn) [Example 1121, 4-chloro-N-(2,5-dichlorophenyl)-N-[4-[2-[(methylsulfonyl)methyl]-1-piperidinyl]-1(R)-methylbutyl]benzenesulfonamide]

IC50 [6]: > 500 nM
Compound: O=S(=O)(c1ccc(Cl)cc1)N(CCc1ccccc1O)c1ccccc1 [Example 1015, 4-chloro-N-[2-(2-hydroxyphenyl)ethyl]-N-phenylbenzenesulfonamide]

IC50 [4]: 50 to 100 nM
Compound: COC(=O)C1SCCN1CC[C@@H](C)N(c1cc(Cl)ccc1Cl)S(=O)(=O)c1ccc(Cl)cc1 (stereo partly drawn) [Example 1133, 4-chloro-N-(2,5-dichlorophenyl)-N-[3-(2-methoxycarbonyl-3-thiazolidinyl)-1(R)-methylpropyl]benzenesulfonamide]
